According to patent US8912194B2, “CDK inhibitor for the treatment of mesothelioma” (Nerviano Medical Sciences S.R.L., priority 2008, dated 2014):

Experiments:
[1] = system: MSTO-211H mesothelioma cell line; assay: Analysis of cell cycle progression and apoptosis induction (cytofluorimetry, propidium iodide); type: cell-based
Method: (§1) MSTO-211H, NCI-H2052 and NCI-H28 mesothelioma cell lines were cultured in RPMI 1640 added with 10% FCS, 2 mM glutamine, 1 mM sodium pyruvate and 10 mM HEPES. For all the experiments cells were seeded at the density of 1×10^4/cm^2, the day after treatment with the compound for the prescribed duration and then collected at the reported times. Cells were washed 24 hours after the treatment, fixed with cold methanol 70% and stored at −20° C. Fixed cells were washed with PBS to remove methanol and were stained with 25 μg/mL of propidium iodide, 5 μg/mL of RNase, and 0.125 μg/mL of Nonidet P 40. Cells were kept at room temperature for 60 minutes in the dark and were analyzed by BD FACSCalibur™ system interfaced to a Macintosh G4 computer with BD CellQuest™ 3.3 software. All doublets or aggregates were removed during analysis by an appropriate gate on an FL3-A/FL3-W dot plot and DNA content analysis was performed in ≧10,000 gated cells. DNA histograms (shown in FIG. 1) were analyzed using ModFit LT™

[2] = system: NCI-H28 mesothelioma cell line; assay: as above; type: cell-based; conditions: NCI-H28, 24 hours after treatment, cytofluorimetric analysis
Method: as §1

[3] = system: NCI-H2052 mesothelioma cell line; assay: as above; type: cell-based; conditions: NCI-H2052, 24 hours after treatment, cytofluorimetric analysis
Method: as §1

[4] = system: cell cycle related markers in mesothelioma cell lines; assay: Western blot analysis of cell cycle related markers, all cell lines; type: cell-based; conditions: all mesothelioma cell lines tested
Method: (§2) Treated cells were lysed by adding SDS sample buffer (0.125M Tris-HCl pH6.8, 5% SDS). Samples were heated to 95° C. for 5 minutes and then sonicated using an Ultrasonic 2000 ARTEK. Lysed cells were centrifuged at 13,000 RPM for 10 minutes. Protein quantification was determined using BCA buffer (Pierce) and a BSA standard curve. 20 μg protein extract per well were loaded and separated by SDS-PAGE gel 7.5-10% (PAGE-PLUS 40% concentrate AMRESCO). The gel was blotted onto nitrocellulose filters (Hybond Amersham) in a buffer containing 25 mM Tris HCl pH 8.3, 192 mM Glycine and 20% methanol. The filters were saturated in 5% low-fat milk in TBS containing 0.1% Tween 20 (TBS-T) for 2 hours at room temperature and than incubated overnight at 4° C. with the primary monoclonal followed by washes in TBS-T and incubation using a secondary anti mouse antibody. The bands were visualized using the “Super Signal West Pico” Pierce.

[5] = system: MSTO-211H mesothelioma cell line; assay: Inhibition of cell proliferation (cellular ATP monitoring); type: cell-based; conditions: Homo sapiens, 72 hours after treatment
Method: (§3) MSTO-211H, NCI-H2052 and NCI-H28 mesothelioma cell lines were cultured in RPMI 1640 added with 10% FCS, 2 mM glutamine, 1 mM sodium pyruvate and 10 mM HEPES. For all the experiments cells were seeded at the density of 1×10^4/cm^2, the day after treatment with the compound for the prescribed duration and then collected at the reported times.
(§4) Cells were washed and counted 72 hours after the treatment. Cell proliferation was determined by a cellular adenosine triphosphate monitoring system. Cell proliferation was compared to control cells. The concentration inhibiting cell proliferation by 50% (IC50) was calculated.

[6] = system: NCI-H28 mesothelioma cell line; assay: as above; type: cell-based; conditions: Homo sapiens; NCI-H28, 72 hours after treatment
Method: as §3, §4

[7] = system: NCI-H2052 mesothelioma cell line; assay: as above; type: cell-based; conditions: Homo sapiens; NCI-H2052, 72 hours after treatment
Method: as §3, §4

[8] = system: mesothelioma cells (MSTO-211H, NCI-H2052, NCI-H28); assay: Inhibition of cell proliferation, summary over all tested mesothelioma cells; type: cell-based; conditions: all the tested mesothelioma cells, 72 hours; read-out: IC50 range, inhibition of proliferation
Method: as §3, §4

[9] = target: Thropomyosin Receptor Kinase A (TRKA) (Homo sapiens, UniProt P04629); assay: Scintillation Proximity Assay (SPA) for kinases; type: biochemical; conditions: read-out: IC50 (printed 1050) towards TRKA
Thropomyosin Receptor Kinase A (TRKA), sequence (P04629 33-796): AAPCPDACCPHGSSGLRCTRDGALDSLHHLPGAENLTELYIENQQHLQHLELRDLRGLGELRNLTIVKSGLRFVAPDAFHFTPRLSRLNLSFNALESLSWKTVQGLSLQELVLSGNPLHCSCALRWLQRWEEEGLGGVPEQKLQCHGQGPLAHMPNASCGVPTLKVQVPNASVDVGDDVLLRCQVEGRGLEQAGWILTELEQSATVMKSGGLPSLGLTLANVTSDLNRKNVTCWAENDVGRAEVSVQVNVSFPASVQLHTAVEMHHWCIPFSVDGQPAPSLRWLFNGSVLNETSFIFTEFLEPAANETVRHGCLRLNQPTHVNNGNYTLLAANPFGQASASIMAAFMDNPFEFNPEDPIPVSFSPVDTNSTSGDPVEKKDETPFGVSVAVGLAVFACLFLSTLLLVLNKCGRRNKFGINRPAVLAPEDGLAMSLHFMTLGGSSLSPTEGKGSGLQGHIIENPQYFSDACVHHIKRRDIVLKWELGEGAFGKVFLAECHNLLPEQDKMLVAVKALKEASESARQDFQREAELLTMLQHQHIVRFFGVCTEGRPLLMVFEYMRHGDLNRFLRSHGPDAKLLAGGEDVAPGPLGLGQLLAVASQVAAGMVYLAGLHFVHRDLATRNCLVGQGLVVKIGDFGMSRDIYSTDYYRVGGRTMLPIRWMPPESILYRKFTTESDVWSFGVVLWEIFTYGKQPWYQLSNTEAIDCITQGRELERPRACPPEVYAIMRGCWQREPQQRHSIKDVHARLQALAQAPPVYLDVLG
Method: This assay allows measurement of the inhibition of the kinase activity of a specific enzyme obtained with test compound. Different kinases can be tested in parallel.
A biotinylated substrate is trans-phosphorylated by a specific kinase in the presence of ATP including a γ33-ATP tracer. At the end of the reaction the phosphorylated substrate is then captured using Streptavidin-coated SPA beads. A dense 5M CsCl solution is added and the mixture is incubated for four hours. This causes the SPA beads to float to the top of the CsCl solution containing the unincorporated radiolabelled ATP.
The extent of phosphorylation is measured using a β-counter.

[10] = system: phosphorylation of AKT, S6 and MAPK in NCI-H28 cells; assay: Western blot analysis of tyrosine kinase growth factor receptor mediated pathways; type: cell-based; conditions: 1 and 3 μM, FIG. 2
Method: as §2

[11] = system: Rb phosphorylation, cyclin A and cdc6 expression in NCI-H28 cells; assay: Western blot analysis of cell cycle related markers; type: cell-based; conditions: 1 and 3 μM, 24 hours, FIG. 2
Method: as §2

mesothelioma = conditions: single agent, mesothelioma patients; cited from earlier work

Structure (SMILES)	Effect on cell cycle progression ([1]; 1 μM, 24 hours, FIG. 1)	Sub G1 peak (induction of apoptosis) ([1]; 3 μM, 24 hours, FIG. 1)	Sub G1 % (percentage of cells with a sub G1 DNA content, apoptosis) ([1]; 24 hours after treatment, cytofluorimetric analysis)	Sub G1 % (percentage of cells with a sub G1 DNA content, apoptosis) [2]	Sub G1 % (percentage of cells with a sub G1 DNA content, apoptosis) [3]	cell cycle related markers [4]	IC50 [5]	IC50 [6]	IC50 [7]	IC50 [8]	IC50 [9]	phosphorylation of AKT [10]	phosphorylation of MAPK [10]	phosphorylation of S6 [10]	Rb phosphorylation ([11]; NCI-H28 cells (mutated in p16/CDKN2A))	cdc6 expression ([11]; NCI-H28 cells)	cyclin A expression ([11]; NCI-H28 cells)	median overall survival (mesothelioma)	response rate (mesothelioma)
CNC(=O)c1nn(C)c2c1C(C)(C)Cc1cnc(Nc3ccc(N4CCN(C)CC4)cc3)nc1-2 [compound of formula (I), 8-[4-(4-methyl-piperazin-1-yl)-phenylamino]-1,4,4-trimethyl-4,5-dihydro-1H-pyrazolo[4,3-h]quinazoline-3-carboxylic acid methylamide]	G1 block	increase of the sub G1 peak	24%	5%	14%	decrease	0.23 ± 0.1 µM	1.56 ± 0.52 µM	0.74 ± 0.37 µM	230 to 1560 nM	53 nM	Inhibition in phosphorylation	Inhibition in phosphorylation	Inhibition in phosphorylation	strong inhibition	strong inhibition	strong inhibition		
Nc1nc2[nH]cc(CCc3ccc(C(=O)N[C@@H](CCC(=O)O)C(=O)O)cc3)c2c(=O)[nH]1 [pemetrexed]																		10.7 months	14.1%
